Laboratory results from patent publication US4428943A, “(N-Phosphonacetyl-L-aspartato) (1,2-diaminocyclohexane)platinum(II) or alkali metal salt” (priority 1981, dated 1984).

Experiments:
Solubility [1] = assay type: physicochemical
Experimental: One ml of each of the following solvents dissolved approximately 2 mg of Pt-268: […]

Solubility [2] = assay type: physicochemical; remark: listed apart in the source
L1210 leukemia = assay: Survival of mice bearing L1210 leukemia, Pt-268 alone (LD50, optimal dose, therapeutic safety ratio); assay type: in vivo, mice (BDF1)
Experimental: Mice received 10^6 L1210 cells on Day 0 via intraperitoneal route. Pt-268 was given intraperitoneally on Day 1 only in 5% glucose solution.
Mice received 10^6 L1210 cells on Day 0 via intraperitoneal route. Pt-268 was given intraperitoneally on Days 1, 5, and 9 in 5% glucose solution.
The BDF1 mice received 10^6 L1210 leukemia cells by I.P. injection on Day 0 and were divided into groups of 10, including a control group of 40 mice. The treated groups were treated on Day 1 only at different dose levels from 10 mg/kg to 200 mg/kg or treated on Days 1, 5, and 9 at dose levels from 2.5 mg/kg to 50 mg/kg.

L1210 cells = assay: Combination of Pt-268 with cisplatin in mice bearing L1210 leukemia (FIG. 4); assay type: in vivo, BDF1 mice; conditions: 5 mg/kg on Day 3, alone
Experimental: Mice were given an inoculum of 10^6 L1210 cells.
With reference to FIG. 4, BDF1 mice were given an inoculum of 10^6 L1210 cells. On Day 3, one grop received NSC-314926, 5 mg/kg. […] Another group received the two drugs in combination on the same schedule.

[3] = tested on: Ehrlich ascites carcinoma; assay: Survival times of BDF1 mice bearing the Ehrlich ascites carcinoma; assay type: in vivo; conditions: Day 1 only; for T/C × 100: treated/control survival time
Excerpt: In addition to testing with L1210 leukemia, satisfactory responses against tests by additional animal cancer organisms have been shown as, for example, Ehrlich ascites tumor, melanoma B-16 and Colon 38. Testing was achieved using either the alkali metal (sodium) salt or the free acid.
Mice received an intraperitoneal inoculation of 10^7 tumor cells on Day 0; treatment was by the intraperitoneal route on Day 1 only. NSC-314926 [N-phosphonacetyl-L-aspartato(1,2-diaminocyclohexane)platinum(II)] was dissolved in 5% dextrose solution. There were 10 mice per group.

## N-phosphonacetyl-L-aspartato(1,2-diaminocyclohexane)platinum(II), Na [Pt-268]
Solubility [1]; CHCl3
  Solubility of a 2-mg sample: very slightly soluble or insoluble
Solubility [1]; acetone
  Solubility of a 2-mg sample: very slightly soluble or insoluble
Solubility [1]; cyclopentanone
  Solubility of a 2-mg sample: very slightly soluble or insoluble
Solubility [1]; dimethylformamide
  Solubility of a 2-mg sample: very slightly soluble or insoluble
Solubility [1]; dimethylsulfoxide
  Solubility of a 2-mg sample: very slightly soluble or insoluble
Solubility [1]; ethanol
  Solubility of a 2-mg sample: very slightly soluble or insoluble
Solubility [1]; heptane
  Solubility of a 2-mg sample: very slightly soluble or insoluble
Solubility [1]; t-butanol
  Solubility of a 2-mg sample: very slightly soluble or insoluble
Solubility [1]; tetrahydrofuran
  Solubility of a 2-mg sample: very slightly soluble or insoluble
Solubility [2]; CH3OH
  Solubility in CH3OH: ~ 0.2 mg/ml
Solubility [2]; water
  Solubility in water: ~ 175 mg/ml
L1210 leukemia; I.P. LD50 / I.P. dose which is 50% of the optimal therapeutic dose
  therapeutic safety ratio (LD50/OptD50): 4.5
L1210 leukemia; L1210, I.P., Day 1 only, 5% glucose
  optimal therapeutic dose: approximately 80 mg/kg
L1210 leukemia; L1210, I.P., Days 1, 5, and 9, 5% glucose
  optimal dose: approximately 20 mg/kg
L1210 leukemia; tumored BDF1 mice (10^6 L1210 cells I.P.)
  LD50: 180 mg/kg
L1210 cells
  effect on median life span, single agent: hardly effective
[3]; 5 mg/kg I.P.
  Survival Time: 16.5 days
  T/C × 100: 123
[3]; 10 mg/kg I.P.
  Survival Time: 18.8 days
  T/C × 100: 140
[3]; 20 mg/kg I.P.
  Survival Time: 24.3 days
  T/C × 100: 181
[3]; 40 mg/kg I.P.
  Survival Time: 25.3 days
  T/C × 100: 189
[3]; 60 mg/kg I.P.
  Survival Time: 28.8 days
  T/C × 100: 215
[3]; 80 mg/kg I.P.
  Survival Time: 29.0 days
  T/C × 100: 216
[3]; 100 mg/kg I.P.
  Survival Time: 31.7 days
  T/C × 100: 237
